# Reference: patent US8247540B2, “Caged nucleotides and oligonucleotides and their application” (priority 2008, dated 2012)
# Where “and” joins values, the source holds several entries; their conditions need not be identical. Identical values can stand only once. Strand notation (5' to 3'): a small letter for the sugar, then the base; units joined by * are phosphorothioate-linked, units joined directly phosphodiester-linked; [ ] holds rarer units or linkages, { } end groups; capitals alone tell only the bases. [cagedT] = caged thymidine: thymidine bearing a photolabile caging group, removed by UV irradiation at 365 nm; [cageT] = thymidine carrying a photolabile caging group (caged thymidine), removed by 365 nm UV light; [NPOM-T] = NPOM-caged (photocaged) thymidine; d = 2'-deoxy (DNA)
# Key:
# [1] = system: complementary RNA sequence (5′ UCCAGAACAAAGGAAACG 3′); assay: Melting temperature of PS DNA/RNA hybrids before and after irradiation; format: binding; details: PS DNA/RNA hybrid; for Mp/° C. +UV: after irradiation (5 min, 365 nm, 23 W); for Mp/° C. −UV: before irradiation
# Source text: The capacity of the three and four caging groups to inhibit hybridization of the caged PS DNA oligomer to the complementary RNA sequence (5′ UCCAGAACAAAGGAAACG 3′) [SEQ ID NO 14] was examined. Hybridization was monitored on a BioRad MyiQ RT-PCR thermocycler by conducting a sequence of 3 heating and cooling cycles. […] Complete hybridization was restored upon a 5-minute irradiation at 365 nm for both caged analogs (Table 2).
# [2] = system: Renilla luciferase reporter gene; assay: Renilla luciferase antisense assay in NIH 3T3 cells (dual reporter); format: cell-based, mouse; details: for antisense activity / effect on the luciferase signal: NIH 3T3, without UV irradiation
# Source text: The error bars represent the standard deviation of three independent experiments.
# These antisense oligomers were transfected into mouse fibroblast cells (NIH 3T3) together with a dual reporter system encoding Renilla luciferase and firefly luciferase as a transfection control.
# [3] = Stability of the caging group to PCR conditions; format: physicochemical; details: elevated temperatures required for PCR
# [4] = system: chordin; assay: Light-regulation of morpholino activity in zebrafish embryos; format: in vivo
# Method: Percentages represent the frequency of the pictured phenotype in live fish. A) Non-injected embryo (100%). B) Injection of the non-caged Chordin-0 MO (100%). C) Injection of the caged MO (Chordin-4) −UV irradiation (80%). D) Injection of the caged MO (Chordin-4) +UV irradiation for 60 sec at 365 nm (100%). Identical amounts were injected in each experiment. The expanded blood island (arrows) is indicative of the chordin phenotype.
# Injections with the non-caged and caged morpholino oligomers containing four […] monomers targeting chordin were conducted. Zebrafish embryos were injected into the yolk sac at the 1-4 cell stage with ˜1 nl of 500 μm caged Chordin-4 morpholino (5′ AT*CCACAGCAGCCCCT*CCAT*CAT*CC 3′ [SEQ ID NO 2]; T* denotes the caged thymidine; containing 0.15% phenol red to verify injection). Immediately after injection, half of the injected embryos were exposed to 365 nm UV light for 60 sec. The other half was protected from light. Half of the uninjected control embryos were also exposed to 365 nm UV for 60 sec, and no phenotypic differences between ±UV were detected. All embryos were grown at 28° C. for about 28 hours before their phenotypes were photographed. The chordin gene induces dorsalization of the developing embryo and injection of an anti-chordin MO induces a phenotype resembling chordin null-mutant embryos by displaying abnormally shaped somites, an expanded blood island (see arrows in FIG. 5), an abnormal tail fin, and a reduced head (see FIG. 5B compared to the non-injected fish shown in FIG. 5A).
# [5] = system: non-caged complement (5′ CGAACCTGGTCGAAATCAG 3′); assay: Melting temperatures of caged and non-caged PCR primers with complementary DNA; format: binding; details: for Mp/° C. +UV: after 8 minutes irradiation at 365 nm; for Mp/° C. −UV: before UV, 1 μM primer and complementary DNA; for melting temperature depression: single caging group, versus P1, −UV
# Method: The DNA oligomers P1-P7, consisting of 19 nucleotides, a typical length for PCR primers, and containing 0-4 caged thymidines have been synthesized (Table 1). These primers were than analyzed for their annealing and melting properties in the presence of a complementary oligonucleotide.
# Melting curves were measured on a BioRad MyiQ RT-PCR thermocycler by conducting a sequence of 3 heating and cooling cycles (1 μM of both primer and complementary DNA with 12.5 μL iQ SYBR Green Supermix to a total volume of 25 μL; 40° C. to 80° C. with a 0.5° C./min ramp). The melting temperatures were determined to be 65.3° C. (P1), 62.1° C. (P2), 54.3° C. (P3), 55.5° C. (P4), and 50.0° C. (P6). […] This effect was less pronounced in P2, perhaps due to the caged T's close proximity to the 5′ terminus, which lead to a lower level of interference with the hybridization of neighboring nucleotides. With the incorporation of additional caging groups in P4-P7, melting temperatures decreased further. However, addition of a single caged thymidine close to the 5′ terminus of P3 had no effect in P4. […] In order to ensure a complete removal of the photolabile group, each primer was irradiated for 8 minutes at 365 nm, and then analyzed in the same melting temperature assay.
# [6] = system: DNA template (plasmid DNA); assay: Light-triggered polymerase chain reaction (activation and deactivation); format: biochemical
# Method: The DNA template (1.5 ng/μL of plasmid DNA) was incubated in the presence of P5 and a reverse primer (5′[…]-GT 3′, [SEQ ID NO 11] 1 μM each; the same reverse primer was used in all PCRs) with nucleotide triphosphates (dNTPs, 0.3 mM each), in Taq Reaction Buffer (10 mM Tris-HCl, 50 mM. KCl, 1.5 mM MgCl2, pH 8.3) and water. Taq DNA Polymerase (3 units/μL) was added to initiate the reaction. Prior to placement in a PCR thermocycler (Eppendor Mastercycler) the reaction was either irradiated for 8 minutes at 365 nm, or maintained in the dark. An initial denaturation at 95° C. was performed, followed by 40 cycles of 95° C. (30 sec), 50° C. (30 sec), and 72° C. (1 min), with a final extension at 72° C. (2 min). The reactions were conducted in triplicate, visualized on a 1% agarose gel, and quantitated (all DNA was quantified by band integration in ethidium bromide stained agarose gels using Image Quant 5.2). […] This experiment represented the first example of a light-activated PCR. While we initially employed irradiation prior to the thermal cycling, temporal control was also achieved by initiating the reaction through irradiation at a specific timepoint. Here, an identical reaction with UV irradiating at cycle 15 was conducted. Prior to irradiation, no PCR product can be detected in reactions conducted with the caged primer P5. In contrast, the non-caged primer P1 lead to the expected exponential amplification.
# After achieving photochemical control of the activation of PCR at a specific time point, the possibility to switch-off PCR activity via light irradiation was examined. This was accomplished by designing a self-complementary primer which was predisposed to form a hairpin, rather than act as a PCR primer. By installing caging groups on the complementary portion of this sequence it was possible to block self-hybridization, which enabled the polymerization reaction. The PCR was then stopped by removing the photoactive groups, leading to hairpin formation and primer deactivation (FIG. 7). In order to achieve photochemical deactivation, an appropriate hairpin primer P8 was designed (5′ […] 3′) [SEQ ID NO. 12], and a photocaged analog P9 was synthesized (5′ […] 3′) [SEQ ID NO. 13]. […] However, in the absence of light irradiation the caged hairpin primer P9 was successful in acting as a primer, yielding 137 ng of PCR product (not shown).
# Light-regulatory mechanisms were also employed in a temporally controlled fashion by irradiating the caged primer after 10 cycles of PCR. The non-caged primer P8 was used as a control, as it formed a hairpin immediately, blocking Taq DNA polymerase and inhibiting amplification. Because the caged primer P9 was able to bind to the DNA template, amplification occurred. […] At the same point, amplification continued in the non-irradiated reaction with P9.
# [7] = activation experiment, no UV irradiation, 40 cycles
compound,measurement,setting,value
"3-Caged: phosphorothioate DNA 5′ CGTTT*CCTTT*GTTCT*GGA 3′, T* NPOM-caged thymidine, SEQ ID NO 17 (DNA dC*dG*dT*dT*d[NPOM-T]*dC*dC*dT*dT*d[NPOM-T]*dG*dT*dT*dC*d[NPOM-T]*dG*dG*dA)",Mp/° C. +UV,[1],39.2 ± 0.6 °C
same,antisense activity / effect on the luciferase signal,[2],completely inhibited the antisense activity
"5. Control: control phosphorothioate DNA 5′ TCCAGAACAAAGGAAACG 3′, SEQ ID NO 15 (DNA dT*dC*dC*dA*dG*dA*dA*dC*dA*dA*dA*dG*dG*dA*dA*dA*dC*dG)",Mp/° C. −UV,[1],No hybridization was detected
same,antisense activity / effect on the luciferase signal,[2],no effect on the luciferase signal
"7. Non-caged: non-caged phosphorothioate DNA targeting Renilla luciferase, 5′ CGTTTCCTTTGTTCTGGA 3′, SEQ ID NO 16",Mp/° C. +UV,[1],39.3 ± 0.8 °C
same,Mp/° C. −UV,[1],39.5 ± 0.5 °C
same,Mp/° C. −UV,[1]; listed as non-caged PS DNA,approximately 39 °C
same,down-regulation of the Renilla luciferase signal,"[2]; NIH 3T3, no UV",70%
"Cc1cn(C2CC(O)C(CO)O2)c(=O)n(COC(C)c2cc3c(cc2[N+](=O)[O-])OCO3)c1=O (stereo not drawn) [monomeric caged thymidine, Caged thymidine]",stability of the caging group to PCR conditions,[3],unaffected by the elevated temperatures
"Chordin-4: caged morpholino 5′ AT*CCACAGCAGCCCCT*CCAT*CAT*CC 3′, T* caged thymidine, four 21 monomers (DNA ATCCACAGCAGCCCCTCCATCATCC; morpholino, caged thymidines, chemistry not fully specified)",frequency of the pictured phenotype in live fish,"[4]; +UV irradiation for 60 sec at 365 nm, chordin phenotype pictured",100%
same,morpholino antisense activity (phenotype),"[4]; protected from light, about 28 hours at 28° C.",completely inactive
same,frequency of the pictured phenotype in live fish,"[4]; −UV irradiation, wild-type phenotype pictured",80%
"P1: non-caged 19 nucleotide PCR primer 5′ CTGATTTCGACCAGGTTCG 3′, SEQ ID NO 3 (DNA, backbone not given here) [reference compound]",Mp/° C. +UV,[5],65.0 ± 0.8 °C
same,Mp/° C. −UV,[5],65.3 °C and 65.3 ± 0.3 °C
same,PCR product,[6]; [7],approximately 140 ng
"P2: primer 5′ CTGATTTCGACCAGGTTCG 3′ with a single caged thymidine close to the 5′ terminus, SEQ ID NO 4 (DNA, [cageT] at 2, backbone not given here)",Mp/° C. +UV,[5],64.1 ± 0.2 °C
same,Mp/° C. −UV,[5],62.1 °C and 62.1 ± 0.7 °C
same,melting temperature depression,[5],3.2 °C
"P3: primer 5′ CTGATTTCGACCAGGTTCG 3′ with a single caged thymidine, SEQ ID NO 5 (DNA, [cageT] at 7, backbone not given here)",Mp/° C. +UV,[5],64.1 ± 0.8 °C
same,Mp/° C. −UV,[5],54.3 °C and 54.3 ± 1.1 °C
same,melting temperature depression,[5],11.0 °C
"P4: P3 with an additional caged thymidine close to the 5′ terminus, SEQ ID NO 6 (DNA CTGATTTCGACCAGGTTCG; DNA, [cageT] at 2, 7, backbone not given here)",Mp/° C. +UV,[5],63.8 ± 0.3 °C
same,Mp/° C. −UV,[5],55.5 °C and 55.5 ± 0.5 °C
"P5: primer with three caging groups distributed throughout the DNA oligomer, SEQ ID NO 7 (DNA CTGATTTCGACCAGGTTCG; DNA, [cageT] at 2, 7, 17, backbone not given here)",Mp/° C. +UV,[5],64.2 ± 0.2 °C
same,Mp/° C. −UV,[5],No melting temperatures could be measured
same,DNA amplification,[6]; UV irradiation at cycle 15,increases exponentially
same,PCR product,"[6]; activation experiment, irradiated 8 minutes at 365 nm before cycling, 40 cycles",comparable amounts of PCR product as found in the reaction with P1
same,PCR product,[6]; [7],only trace amounts
"P6: primer with a cluster of three caged thymidines, SEQ ID NO 8 (DNA CTGATTTCGACCAGGTTCG; DNA, [cageT] at 5, 6, 7, backbone not given here)",Mp/° C. +UV,[5],64.5 ± 0.5 °C
same,Mp/° C. −UV,[5],50.0 °C and 50.0 ± 1.0 °C
"P7: caged primer 5′ CTGATTTCGACCAGGTTCG 3′, SEQ ID NO 9, probably four caged thymidines (DNA, [cagedT] at 2, 5, 7, 17, backbone not given here; PCR primer)",Mp/° C. +UV,[5],64.2 ± 0.3 °C
same,Mp/° C. −UV,[5],No melting temperatures could be measured
"P8: non-caged hairpin primer 5′ GGTCAGTAAATTGTTTTTCAATTTACTGACCG 3′, SEQ ID NO 12 (hairpin primer, further chemistry not given here) [reference compound]",PCR product,"[6]; deactivation (hairpin primer) experiment, no light irradiation, 25 cycles",very little PCR product
